What follows are compounds tested against recombinant human Myt1 (Homo sapiens (Human), UniProt Q99640) (assay: Myt1 enzymatic assay (ADP-Glo kinase assay)). Conditions: recombinant human Myt1 18 nM, ATP 10 μM.
Type: biochemical
Method: Detection of Myt1 kinase activity utilized a recombinant human Myt1 kinase assay measuring the hydrolysis of ATP using a commercially available ADP-Glo Assay (ADP-Glo™ Kinase Assay from Promega, 10 000 assays, #V9102). Briefly, 5 μL recombinant human Myt1 (full length PKMYT1 recombinant human protein expressed in insect cells from Thermo Fisher #A33387; ˜80% purity) was prepared in reaction buffer (70 mM HEPES, 3 mM MgCl2, 3 mM MnCl2, 50 μg/ml PEG 20000, 3 μM Na-orthovanadate, 1.2 mM DTT) and added to 384 well white polystyrene, flat bottom well, non-treated, microplate (Corning #3572). After this, 5 μL of compounds (diluted in reaction buffer to 0.5% DMSO) was added to the microplate and the plate was spun briefly and incubated at 22° C. for 15 minutes. Ultra-Pure Adenosine Triphosphate (ATP) solution (ADP-Glo kit from Promega) was diluted in reaction buffer and 5 μL was added to the microplate, spun down briefly and incubated for 60 minutes at 30° C. The final Myt1 enzyme concentration was 18 nM and the final ATP concentration was 10 μM. After the 60-minute incubation, 15 μL of ADP-Glo reagent was added and the plate was spun briefly and sealed and incubated in the dark for 40 minutes at 22° C. Following this, 30 μL of kinase detection reagent was added per well and the plate was spun briefly, sealed and incubated for 45-60 minutes at 22° C. in the dark. Luminescence was read using the Envision (250 ms integration). The IC50 and the % max inhibition were calculated for each inhibitor compound tested.

recombinant human Myt1, sequence (Q99640 whole entry): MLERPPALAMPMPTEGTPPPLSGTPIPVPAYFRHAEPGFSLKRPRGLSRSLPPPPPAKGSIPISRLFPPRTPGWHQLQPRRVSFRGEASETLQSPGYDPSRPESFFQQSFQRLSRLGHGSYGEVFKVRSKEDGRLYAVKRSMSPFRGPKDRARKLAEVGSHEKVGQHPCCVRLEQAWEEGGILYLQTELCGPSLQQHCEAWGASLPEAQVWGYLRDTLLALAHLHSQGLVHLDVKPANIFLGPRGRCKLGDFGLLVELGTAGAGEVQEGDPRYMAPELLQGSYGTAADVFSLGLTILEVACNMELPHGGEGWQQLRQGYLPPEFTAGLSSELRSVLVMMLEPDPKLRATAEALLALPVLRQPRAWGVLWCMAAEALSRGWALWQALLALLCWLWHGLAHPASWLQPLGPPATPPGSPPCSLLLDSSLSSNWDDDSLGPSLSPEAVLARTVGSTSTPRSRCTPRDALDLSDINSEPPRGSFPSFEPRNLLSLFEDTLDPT

Structure (SMILES) | IC50 [nM]
Nc1c(-c2cccc3[nH]ncc23)cc(-c2cccc(OC[C@@H]3CCCO3)n2)c2nc(-c3ccncc3)[nH]c(=O)c12 [Compound 55] | 4
Nc1c(-c2cccc3[nH]ncc23)cc(Br)c2nc(-c3ccc(N4CCCCC4CO)nc3)[nH]c(=O)c12 (stereo not drawn) [Compound 44] | 11
Cc1cccc(-c2nc3c(-c4nccs4)cc(-c4cccc5[nH]ncc45)c(N)c3c(=O)[nH]2)c1 [Compound 20] | 10
Cc1ccc(O)cc1-c1cc(-c2nc(C(F)(F)F)cs2)c2c(c1N)C(=O)NC2 [Compound 149] | 682
Cc1ccc(O)cc1-c1cc(-c2ncc(C(=O)N(C)C)s2)c2c(c1N)C(=O)NC2 [Compound 154] | 298
Cc1ccc(O)cc1-c1cc(-c2nc(CN3CCOCC3)cs2)c2c(c1N)C(=O)NC2 [Compound 146] | 135
Cc1ccc(O)cc1-c1cc(-c2nc(C#N)cs2)c2c(c1N)C(=O)NC2 [Compound 160] | 237
CC1(O)CCN(c2ccc(-c3nc4c(Br)cc(-c5cccc6[nH]ncc56)c(N)c4c(=O)[nH]3)cn2)CC1 [Compound 47] | 11
Cc1ccc2[nH]ncc2c1-c1cc(Br)c2nc[nH]c(=O)c2c1N [Compound 133] | 26
N#Cc1cnc(-c2cc(-c3cccc4[nH]ncc34)c(N)c3c(=O)[nH]cnc23)s1 [Compound 128] | 5
Nc1c(-c2cccc3[nH]ncc23)cc(-c2nccs2)c2nc(CCc3cccnc3)[nH]c(=O)c12 [Compound 112] | 34
Cc1ccc(O)cc1-c1cc(-c2ncccn2)c2c(c1N)C(=O)NC2 [Compound 108] | 73
Cc1ccc2[nH]ncc2c1-c1cc(-c2ccc(F)cn2)c2c(c1N)C(=O)NC2 [Compound 62] | 539
Nc1c(-c2cccc3[nH]ncc23)cc(-c2nccs2)c2nc(-c3cccc(N4CCOCC4)c3)[nH]c(=O)c12 [Compound 18] | 9
Nc1c(-c2cccc3[nH]ncc23)cc(Br)c2nc[nH]c(=O)c12 [Compound 106] | 24
CNC(=O)c1csc(-c2cc(-c3cc(O)ccc3C)c(N)c3c2CNC3=O)n1 [Compound 159] | 75
Cc1ncccc1-c1nc2c(-c3nccs3)cc(-c3cccc4[nH]ncc34)c(N)c2c(=O)[nH]1 [Compound 113] | 94
Cc1ccc(O)cc1-c1cc(-c2ccccc2)c2c(c1N)C(=O)NC2 [Compound 163, 7-amino-6-(5-hydroxy-2-methyl-phenyl)-4-phenyl-isoindolin-1-one] | 1070
Cc1ccc(O)c(C)c1-c1cc(Br)c2c(c1N)C(=O)NC2 [Compound 141] | 92
Cc1ccc(O)c(C)c1-c1cc(-c2nccs2)c2c(c1N)C(=O)NC2 [Compound 139] | 7
Nc1c(-c2cccc3[nH]ncc23)cc(-c2ccns2)c2nc[nH]c(=O)c12 [Compound 132] | 4

Structure (SMILES) | IC50 [nM]
N#Cc1csc(-c2cc(-c3cccc4[nH]ncc34)c(N)c3c(=O)[nH]cnc23)n1 [Compound 107] | 3
Cc1ccc(O)cc1-c1cc(-c2ncc(C(=O)N3CCOCC3)s2)c2c(c1N)C(=O)NC2 [Compound 152] | 683
CS(=O)(=O)c1ccc(-c2nc3c(-c4nccs4)cc(-c4cccc5[nH]ncc45)c(N)c3c(=O)[nH]2)cc1 [Compound 14] | 6
COCCNc1cc(-c2nc3c(Br)cc(-c4cccc5[nH]ncc45)c(N)c3c(=O)[nH]2)ccn1 [Compound 37] | 11
Nc1c(-c2cccc3[nH]ncc23)cc(-c2ccc(C(F)(F)F)s2)c2nc[nH]c(=O)c12 [Compound 126] | 880
Nc1c(-c2cccc3[nH]ncc23)cc(-c2nccs2)c2nc(-c3ccc(-c4ccccc4)cc3)[nH]c(=O)c12 [Compound 6] | > 2000
COCCOc1ccc(-c2nc3c(Br)cc(-c4cccc5[nH]ncc45)c(N)c3c(=O)[nH]2)cn1 [Compound 103] | 8
Nc1c(-c2cccc3[nH]ncc23)cc(C2=CCC(F)(F)CC2)c2nc(-c3ccncc3)[nH]c(=O)c12 [Compound 71] | 21
Nc1c(-c2cccc3[nH]ncc23)cc(C2CC2)c2nc(-c3cccnc3)[nH]c(=O)c12 [Compound 92] | 7
Nc1c(-c2cccc3[nH]ncc23)cc(Br)c2nc(-c3ccncc3)[nH]c(=O)c12 [Compound 83] | 5
Nc1ccc(-c2nc3c(-c4nccs4)cc(-c4cccc5[nH]ncc45)c(N)c3c(=O)[nH]2)cc1 [Compound 16] | 54
Nc1c(-c2cccc3[nH]ncc23)cc(-c2cc(F)cc(F)c2)c2nc[nH]c(=O)c12 [Compound 124] | 66
Cc1ccc(O)cc1-c1cc(C2=CCOCC2)c2c(c1N)C(=O)NC2 [Compound 105] | 641
Nc1c(-c2cccc3[nH]ncc23)cc(-c2nccs2)c2nc(-c3ccccc3)[nH]c(=O)c12 [Compound 1, 5-amino-6-(1H-indazol-4-yl)-2-phenyl-8-(thiazol-2-yl)quinazolin-4(3H)-one] | 4
Cc1ccc(-c2cc(-c3cccc4[nH]ncc34)c(N)c3c(=O)[nH]cnc23)s1 [Compound 121, 5-amino-6-(1H-indazol-4-yl)-8-(5-methylthiophen-2-yl)quinazolin-4(3H)-one] | 62
Nc1c(-c2cccc3[nH]ncc23)cc(Br)c2nc(-c3ccc(N4CCN(CCO)CC4)nc3)[nH]c(=O)c12 [Compound 36] | 76
Nc1c(-c2cccc3[nH]ncc23)cc(Br)c2nc(-c3ccc(N4CCOCC4)nc3)[nH]c(=O)c12 [Compound 25, 5-amino-8-bromo-6-(1H-indazol-4-yl)-2-(6-morpholinopyridin-3-yl)quinazolin-4(3H)-one 2,2,2-trifluoroacetate] | 23
Nc1c(-c2cccc3[nH]ncc23)cc(-c2nccs2)c2nc(-c3ccncc3)[nH]c(=O)c12 [Compound 33] | 9
Cc1ccc(-c2nc3c(-c4nccs4)cc(-c4cccc5[nH]ncc45)c(N)c3c(=O)[nH]2)cc1 [Compound 3] | 33
Nc1c(-c2cccc3[nH]ncc23)cc(-c2cnn(C3CCOCC3)c2)c2nc(-c3ccncc3)[nH]c(=O)c12 [Compound 67] | 3

Further lines, results first:

IC50 [nM] | Structure (SMILES)
6 | Nc1c(-c2cccc3[nH]ncc23)cc(Br)c2nc(-c3ccc(N4CCC(C(=O)O)CC4)nc3)[nH]c(=O)c12 [Compound 32]
16 | Cc1ccc2[nH]ncc2c1-c1cc(-c2nccs2)c2c(c1N)C(=O)NC2 [Compound 63]
170 | Nc1c(-c2cccc3[nH]ncc23)cc(-c2ncccn2)c2nc[nH]c(=O)c12 [Compound 122]
45 | Nc1c(-c2cccc3[nH]ncc23)cc(-c2cnccn2)c2nc[nH]c(=O)c12 [Compound 130]
3 | Nc1c(-c2cccc3[nH]ncc23)cc(-n2cccn2)c2nc(-c3cccnc3)[nH]c(=O)c12 [Compound 79]
4 | Nc1c(-c2cccc3[nH]ncc23)cc(-c2nccs2)c2nc(-c3cccnc3)[nH]c(=O)c12 [Compound 111]
2 | CC(=O)N1CC=C(c2cc(-c3cccc4[nH]ncc34)c(N)c3c(=O)[nH]c(-c4ccncc4)nc23)CC1 [Compound 57]
1230 | Cc1ccc2[nH]ncc2c1-c1cc(-c2ccnnc2)c2c(c1N)C(=O)NC2 [Compound 51]
23 | Cn1ccc(-c2cc(-c3cccc4[nH]ncc34)c(N)c3c(=O)[nH]cnc23)n1 [Compound 129]
1600 | Cc1ccc(O)cc1-c1cc(-c2ncc(CN3CCOCC3)s2)c2c(c1N)C(=O)NC2 [Compound 143]
47 | Cc1nc2c(-c3nccs3)cc(-c3cccc4[nH]ncc34)c(N)c2c(=O)[nH]1 [Compound 9]
2 | Nc1c(-c2cccc3[nH]ncc23)cc(-c2cccc(OCCN3CCOCC3)n2)c2nc(-c3ccncc3)[nH]c(=O)c12 [Compound 50, 5-amino-6-(1H-indazol-4-yl)-8-[6-(2-morpholinoethoxy)-2-pyridyl]-2-(4-pyridyl)-3H-quinazolin-4-one]
209 | Cc1ccc(O)cc1-c1cc(-c2ncc(C(=O)NCCO)s2)c2c(c1N)C(=O)NC2 [Compound 147]
89 | Nc1c(-c2cccc3[nH]ncc23)cc(-c2ccc(Cl)s2)c2nc[nH]c(=O)c12 [Compound 123]
5 | Nc1ccc(-c2nc3c(-c4nccs4)cc(-c4cccc5[nH]ncc45)c(N)c3c(=O)[nH]2)cn1 [Compound 4]
67 | Nc1c(-c2cccc3[nH]ncc23)ccc2nc(-c3ccncc3)[nH]c(=O)c12 [Compound 96]
20 | COCc1nc2c(-c3nccs3)cc(-c3cccc4[nH]ncc34)c(N)c2c(=O)[nH]1 [Compound 43]
6 | Nc1c(-c2cccc3[nH]ncc23)cc(-c2cnn(CC3CC3)c2)c2nc(-c3ccncc3)[nH]c(=O)c12 [Compound 68]
548 | Cc1ccc(O)cc1-c1cc(-c2ccccn2)c2c(c1N)C(=O)NC2 [Compound 136]
6 | N#Cc1cccc(-c2nc3c(-c4nccs4)cc(-c4cccc5[nH]ncc45)c(N)c3c(=O)[nH]2)c1 [Compound 21]
179 | Cc1ccc(O)cc1-c1cc(-c2ncc(C#N)s2)c2c(c1N)C(=O)NC2 [Compound 155]
111 | Cc1ccc(O)c(C)c1-c1cc(-c2ccc(F)cn2)c2c(c1N)C(=O)NC2 [Compound 140]

Reference: patent US20230348456A1, “QUINAZOLINONES, PHARMACEUTICAL COMPOSITIONS CONTAINING THE SAME, AND METHODS OF USING THE SAME” (Repare Therapeutics Inc., priority 2022, published 2023)
